Measurements published in patent US20230287138A1, “PROTEIN-DRUG CONJUGATES COMPRISING CAMPTOTHECIN ANALOGS AND METHODS OF USE THEREOF” (Regneron Pharmaceuticals, Inc., priority 2022, published 2023).
Where two headings read alike, the source gives them in different places.

Key:
HCT-15 = HCT-15 data of payloads and linker-payloads (EC50, with or without verapamil); assay type: cell-based
SK-BR-3 cells = assay: In vitro cytotoxicity assay in SK-BR-3 cells (CellTiter-Glo 2.0); assay type: cell-based, human; conditions: for EC50: Homo sapiens
Experimental: To test the ability of anti-Her2 drug conjugates (ADCs) of the present disclosure (see Table 5) to kill human cell lines, an in vitro cytotoxicity assay was performed. In vitro cytotoxicity of the ADCs, isotype control ADCs, and reference free payloads were evaluated using the CellTiter-Glo 2.0 Assay Kit (Promega, Cat #G9243), in which the quantity of ATP present is used to determine the number of viable cells in culture.
The last well in each dilution series (untreated wells) served as blank controls containing only the media (ADCs) or media plus 0.2% DMSO (payloads) and was plotted as a continuation of the 3-fold serial dilution. Six days later, 100 μL of CellTiter Glo 2.0 was added to each well, plates were mixed for 2 minutes on an orbital shaker, and plates were incubated at room temperature for 10 minutes. Relative light units (RLUs) were measured on an Envision luminometer (PerkinElmer), and cell viability was expressed as a percentage of the untreated (100% viable) cells. IC50 values were determined using a four-parameter logistic equation over a 10-point dose response curve (GraphPad Prism). The maximum % kill was also determined for each test article as follows: 100−minimum percent viability.

[1] = Homo sapiens, linker-payload, HCT-15 cells, read-out: HCT-15 EC50
[2] = Homo sapiens, payload, HCT-15 cells, no verapamil, read-out: HCT-15 EC50
[3] = payload, HCT-15 cells plus verapamil, read-out: HCT-15 + verapamil EC50

SMILES	EC50 (HCT-15; [2])	EC50 (HCT-15; [3])	also measured
CC[C@@]1(O)C(=O)OCc2c1cc1n(c2=O)Cc2c-1nc1cc(F)c(C)c3c1c2[C@@H](NC(=O)OCc1ccc(O[C@@H]2O[C@H](CO)[C@@H](O)[C@H](O)[C@H]2O)c(C(=O)NCCNC(=O)COC2C#CCCCCC2)c1)CC3 (stereo partly drawn) [LP4, [3-({2-[2-(Cyclooct-2-yn-1-yloxy)acetamido]ethyl}carbamoyl)-4-{[(2S,3R,4S,5S,6R)-3,4,5-trihydroxy-6-(hydroxymethyl)oxan-2-yl]oxy}phenyl]methyl N-[(10S,23S)-10-ethyl-18-fluoro-10-hydroxy-19-methyl-5,9-dioxo-8-oxa-4,15-diazahexacyclo[14.7.1.0^2,^14.0^4,^13.0^6,^11.0^20,^24]tetracosa-1,6(11),12,14,16,18,20(24)-heptaen-23-yl]carbamate]			EC50 (HCT-15; [1]): 363 nM
CC[C@@]1(O)C(=O)OCc2c1cc1n(c2=O)Cc2c-1nc1ccc(OC)cc1c2CO [P20, (19S)-19-Ethyl-19-hydroxy-10-(hydroxymethyl)-7-methoxy-17-oxa-3,13-diazapentacyclo[11.8.0.0^2,^11.0^4,^9.0^15,^20]henicosa-1(21),2,4,6,8,10,15(20)-heptaene-14,18-dione]	3.69 nM	2.4 nM	
CC[C@@]1(O)C(=O)OCc2c1cc1n(c2=O)Cc2c-1nc1ccc(OC)cc1c2CNCCCN=[N+]=[N-] [P23, (S)-11-(((3-azidopropyl)amino)methyl)-4-ethyl-4-hydroxy-9-methoxy-1,12-dihydro-14H-pyrano[3′,4′:6,7]indolizino[1,2-b]quinoline-3,14(4H)-dione]	36.7 nM		
CC[C@@](O)(C(=O)NCCN)c1cc2n(c(=O)c1COC(C)=O)Cc1c-2nc2cc(F)c(C)c3c2c1[C@@H](NC(=O)COC(C)=O)CC3 [P13, {[(19S)-6-[(Acetyloxy)methyl]-7-[(1 S)-1-[(2-aminoethyl)carbamoyl]-1-hydroxypropyl]-14-fluoro-15-methyl-5-oxo-4,11-diazapentacyclo[10.7.1.0^2,^10.0^4,^9.0^16,^20]icosa-1,6,8,10,12,14,16(20)-heptaen-19-yl]carbamoyl}methyl acetate]	134 nM		
CC[C@@]1(O)C(=O)OCc2c1cc1n(c2=O)Cc2c-1nc1cc(F)c(C)c3c1c2[C@@H](NC(=O)OCc1ccc(O[C@@H]2O[C@H](CO)[C@@H](O)[C@H](O)[C@H]2O)c(C(=O)NCCOCCOCCNC(=O)CCOCC(COCCC(=O)NCCOCCOCCNC(=O)c2cc(COC(=O)N[C@H]4CCc5c(C)c(F)cc6nc7c(c4c56)Cn4c-7cc5c(c4=O)COC(=O)[C@]5(O)CC)ccc2O[C@@H]2O[C@H](CO)[C@@H](O)[C@H](O)[C@H]2O)NC(=O)CCOCCOCCNC(=O)COC2C#CCCCCC2)c1)CC3 (stereo partly drawn) [LP16]			EC50 (HCT-15; [1]): 140 nM
CC[C@@]1(O)C(=O)OCc2c1cc1n(c2=O)Cc2c-1nc1cc(F)c(C)c3c1c2[C@@H](N)CC3 [Exatecan]			EC50 (SK-BR-3 cells; 144 h, Table 8, SK-BR-3, six days, concentrations corrected for DAR (effective payload concentration), read-out: SKBR3 EC50): 0.516 nM; EC50 (SK-BR-3 cells; SK-BR-3 cells, read-out: EC50 value): 0.516 nM; maximum % kill (SK-BR-3 cells; SK-BR-3 cells, 100 − minimum percent viability): ~95%
CC[C@@]1(O)C(=O)OCc2c1cc1n(c2=O)Cc2c-1nc1cc(F)c(C)c3c1c2[C@@H](NS(C)(=O)=O)CC3 [P6, N-[(10S,23S)-10-ethyl-18-fluoro-10-hydroxy-19-methyl-5,9-dioxo-8-oxa-4,15-diazahexacyclo[[14.7.1.0^2,^14.0^4,^13.0^6,^11.0^20,^24]]tetracosa-1,6(11),12,14,16,18,20(24)-heptaen-23-yl]methanesulfonamide]	7.45 nM	3.16 nM	
CC[C@@]1(O)C(=O)OCc2c1cc1n(c2=O)Cc2c-1nc1cc(F)c(C)c3c1c2[C@@H](NC(=O)[C@@H](N)CCCCN)CC3 [P4, (2S)-2,6-diamino-N-[(10S,23S)-10-ethyl-18-fluoro-10-hydroxy-19-methyl-5,9-dioxo-8-oxa-4,15-diazahexacyclo[[14.7.1.0^2,^14.0^4,^13.0^6,^11.0^20,^24]]tetracosa-1,6(11),12,14,16,18,20(24)-heptaen-23-yl]hexanamide]	447 nM	581 nM	
CC[C@@]1(O)C(=O)OCc2c1cc1n(c2=O)Cc2c-1nc1cc(F)c(C)c3c1c2[C@@H](NC(=O)CN)CC3 [P2, 2-Amino-N-[(10S,23S)-10-ethyl-18-fluoro-10-hydroxy-19-methyl-5,9-dioxo-8-oxa-4,15-diazahexacyclo[[14.7.1.0^2,^14.0^4,^13.0^6,^11.0^20,^24]]tetracosa-1,6(11),12,14,16,18,20(24)-heptaen-23-yl]acetamide]	61.9 nM	14.3 nM	
